Assay results from patent publication US4468383A, “Dimeric enkephalins” (The United States of America as represented by the …, priority 1982, dated 1984).

Tested on: NG108-15 cells (a neuroblastoma-glioma hybrid cell line)
Test: In vitro bioassay in NG108-15 cells stimulated by prostaglandin E1
Type: cell-based
Details: read-out: IC50 in NG108-15 cells stimulated by PGE1

## CC(C)C[C@H](NC(=O)[C@H](Cc1ccccc1)NC(=O)CNC(=O)[C@@H](C)NC(=O)[C@@H](N)Cc1ccc(O)cc1)C(=O)NCCNC(=O)[C@H](CC(C)C)NC(=O)[C@H](Cc1ccccc1)NC(=O)CNC(=O)[C@@H](C)NC(=O)[C@@H](N)Cc1ccc(O)cc1 [DPE2]
  IC50: ~0.15 nM
